The values that follow are results of earlier work, collected in patent US20060006323A1, “Method and an apparatus for evaluating toxicity of chemical agents” (priority 2004, published 2006).

The target of the first series is T1, AhR (Homo sapiens, UniProt P35869).
T1 sequence (P35869 11-848): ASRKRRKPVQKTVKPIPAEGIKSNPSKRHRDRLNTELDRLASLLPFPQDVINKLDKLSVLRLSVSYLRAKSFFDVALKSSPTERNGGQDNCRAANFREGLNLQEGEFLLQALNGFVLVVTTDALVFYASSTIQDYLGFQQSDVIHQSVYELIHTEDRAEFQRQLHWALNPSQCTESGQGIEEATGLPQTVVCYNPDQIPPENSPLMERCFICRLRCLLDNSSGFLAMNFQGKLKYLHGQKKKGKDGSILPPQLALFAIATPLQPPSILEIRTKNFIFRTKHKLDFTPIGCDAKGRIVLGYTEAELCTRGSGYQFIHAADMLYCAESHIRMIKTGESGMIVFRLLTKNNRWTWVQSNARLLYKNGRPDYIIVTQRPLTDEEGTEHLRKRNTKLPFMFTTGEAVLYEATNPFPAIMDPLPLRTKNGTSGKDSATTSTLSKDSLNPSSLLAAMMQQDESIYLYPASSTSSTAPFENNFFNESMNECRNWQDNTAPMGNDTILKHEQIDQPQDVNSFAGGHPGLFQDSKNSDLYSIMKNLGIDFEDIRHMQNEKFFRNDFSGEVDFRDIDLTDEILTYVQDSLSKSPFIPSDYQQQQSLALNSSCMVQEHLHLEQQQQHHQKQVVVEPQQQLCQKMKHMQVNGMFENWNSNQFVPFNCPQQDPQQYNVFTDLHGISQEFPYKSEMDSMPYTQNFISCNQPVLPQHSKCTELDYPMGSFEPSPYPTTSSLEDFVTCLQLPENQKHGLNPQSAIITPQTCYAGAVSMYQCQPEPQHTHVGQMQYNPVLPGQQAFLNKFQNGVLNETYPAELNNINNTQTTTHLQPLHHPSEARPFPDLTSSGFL
Particulars: published by Matsui et al. 2002, HPLC bioassay; cited from earlier work.
As for `O=C1/C(=C2\Nc3ccccc3C2=O)Nc2ccccc21` [indigo], the “affinity with AhR” value is “strong affinity”.

System in a further series: not given
The note with it: toxicity intensity relative to 2,3,7,8-TCDD set to be 1; cited from earlier work.
As for `Clc1cc2c(cc1Cl)Oc1c(Cl)c(Cl)c(Cl)c(Cl)c1O2` [1,2,3,4,7,8-HxCDD], the WHO-TEF is 0.1.

On to `Clc1cc2c(c(Cl)c1Cl)Oc1cc(Cl)c(Cl)c(Cl)c1O2` [1,2,3,6,7,8-HxCDD], for which the WHO-TEF is 0.1.

Take `Clc1cc2c(c(Cl)c1Cl)Oc1c(cc(Cl)c(Cl)c1Cl)O2` [1,2,3,7,8,9-HxCDD]: the WHO-TEF was 0.1.

For the compound `Clc1cc2c(cc1Cl)Oc1c(cc(Cl)c(Cl)c1Cl)O2` [1,2,3,7,8-PeCDD], the WHO-TEF was 1.

For the compound `Clc1cc2c(cc1Cl)Oc1cc(Cl)c(Cl)cc1O2` [2,3,7,8-TCDD], the WHO-TEF was 1.

With `Clc1c(Cl)c(Cl)c2c(c1Cl)Oc1c(Cl)c(Cl)c(Cl)c(Cl)c1O2` [OCDD], the WHO-TEF is reported as 0.0001.

System in the next series: not given
The note with it: reported toxicity; cited from earlier work.
For the compound `Clc1c(Cl)c(Cl)c2c(c1Cl)Oc1ccccc1O2` [1,2,3,4-TCDD], the toxicity result was “without any reported toxicity”.

Regarding `O=C1/C(=C2\Nc3ccccc3C2=O)Nc2ccccc21` [indigo], the toxicity result was “comparatively low”.
